{
  "source": "patent US6908943B2",
  "about": "“Use of γ-tocopherol and its oxidative metabolite LLU-α in the treatment of disease” (Loma Linda University Medical Center, priority 1998, dated 2005)",
  "key": {"Na+/K+-ATPase": {"target": "T1, Na+/K+-ATPase (Bos taurus, UniProt Q08DA1)", "T1 construct": "host or cells: MDBK (Madin-Darby bovine kidney) cells", "test": "Na+/K+-ATPase inhibition assay (86Rb+ uptake) in MDBK cells", "assay_type": "cell-based, bovine", "details": "0.2-200 ng/well", "method": "The assay in MDBK cells has been described previously (see Benaksas at al., above). The assay is described briefly here. Madin-Darby bovine kidney (MDBK) cells (ATCC:CCL22) were maintained in Dulbecco's Modified Eagle's Medium (DMEM) with 5% Fetal Bovine Serum and 5% Bovine Calf Serum in a 5% CO2/95% humidified air atmosphere at 37° C. and split (1:2) once per week.\nOne day before the assay, cells were plated in a 96-well plate at a density of 5×10^5 cells/well in DMEM with serum. On the day of the assay the medium was removed and the cells washed with phosphate buffered saline (PBS) before addition of 100 μL of assay media (122 mM NaCl, 1.8 mM CaCl2, 0.8 mM MgSO4, 24 mM NaHCO3, 1 mM sodium pyruvate, 25 mM glucose, 14 mM glycylglycine, 0.2% phenol red, 8 mM Na2HPO4 1.15 mM KH2PO4, pH 8.0) and 100 μl of sample. The plate was preincubated for 30 minutes at 37° C., then chilled on ice for 10 minutes. To each well was added 0.15 μCi ^86RbCl (Amersham) in 10 μL of assay media. The plate was then incubated at 37° C. for 10 minutes. A portion (100 μL) of the supernatant was counted with 0.5 mL of scintillation cocktail in a liquid scintillation counter. As a control for Na^+/K^+-ATPase inhibition, a dose response curve for ouabain in the range of 10^−5-10^−8 M was obtained. Intra-experiment coefficient of variation for ouabain was 3-15%. […]"}, "[1]": {"test": "Chemical characteristics / stability of the natriuretic LLUs", "assay_type": "physicochemical"}, "conscious rats": {"test_system": "conscious rats", "test": "In vivo bioassay for natriuresis in conscious rats", "design": "species or system rat", "details": "for Natriuretic Response (R): R > 0.67 = active", "method": "The assay for natriuresis in conscious rats has been described previously (see Benaksas et al., above). The assay is briefly reiterated here. Female Sprague-Dawley (Harlan) rats (200-250 g) were cannulated in the femoral artery and vein for monitoring of mean arterial pressure (MAP) and Infusion of saline and samples, respectively. The bladder was catheterized for collection of urine in ten-minute periods. Furosemide (0.4 mg/kg bwt; 1 mg/mL in 0.17% saline) was infused as a positive control at the beginning of the sixth ten-minute period. The sample was infused at the beginning of the seventeenth ten-minute period. Urine was collected for another 150 minutes. The volume of the urine was determined gravimetrically and the Na^+ and K^+ concentrations determined with a Beckman E2A electrolyte analyzer.\nThe natriuretic response of a sample was normalized to the dose of furosemide infused. The not sodium excretion for the Infusion of furosemide or sample was calculated as follows. The median sodium excretion value (μmoles Na^+/10 minute period) for the five periods before infusion of furosemide or sample was used to establish a baseline value for the calculation of ΔUNaV (=μmoles Na^+ period—baseline μmoles Na^+) for administration of either furosemide or sample respectively. The sum of ΔUNaV for the four periods following infusion of furosemide was the net sodium excreted for furosemide, defined as FR. The sum of ΔUNaV for the fifteen periods following infusion of the sample was the net sodium excreted for the sample defined as SR. The natriuretic ratio Rn (or normalized natriuretic response) of a sample was calculated by dividing SR by FR (Rn=SR/FR). A sample is considered natriuretically active if the Rn value for that sample was greater than or equal to 0.67 (greater than 99% confidence limits)."}, "[2]": {"test_system": "tumor cells derived from a spontaneously arising mammary tumor", "test": "Tumor formation in mice injected with mammary tumor cells", "assay_type": "in vivo", "details": "20 mg/kg, 21 days after tumor cell injection, versus untreated tumor-induced control mice", "description": "Four groups of mice are used in the study: (1) control mice in which tumor formation is not induced but treatment with a formulation of γ-tocopherol 75% (weight to weight) and LLU-α 25% (weight to weight) is rendered; (2) control mice in which tumor formation is induced and treatment is not rendered; (3) experimental mice in which tumor formation is induced and treatment with γ-tocopherol 75% (weight to weight) is rendered; and (4) experimental mice in which tumor formation is induced and treatment with a formulation of γ-tocopherol 75% (weight to weight) and LLU-α 25% (weight to weight) is rendered. As a further control, mice in which tumor formation is induced are treated with varying concentrations of α-tocopherol so as to evaluate the relative effectivity of γ-tocopherol and the formulation of γ-tocopherol and LLU-α, as compared to α-tocopherol.\nMice which receive treatment with γ-tocopherol or a formulation of γ-tocopherol and LLU-α, as described above, are given 20 mg/kg of supplement for a period of 2-4 weeks. Tumor cells derived from a spontaneously arising mammary tumor are then injected into the thigh area of the experimental mice to induce tumor formation. Treatment with γ-tocopherol and the formulation of γ-tocopherol and LLU-α is continued according to the protocol above. After 21 days, the mean volume of tumors in the mice is determined and compared."}},
  "note": "“And” between values parts separate entries of the source, which are not always exact repeats. Equal entries are not always repeated. “Also recorded” adds a separate entry of the source.",
  "data": [
    {"smiles": "Cc1c(C)c2c(c(C)c1O)CCC(C)(CCC(=O)O)O2", "note": "(racemic) [Example 12, 2,5,7,8-tetramethyl-2-(β-carboxyethyl)-6-hydroxy chroman]", "values": [
      {"measurement": "melting point", "value": 173, "unit": "°C"}
    ]},
    {"smiles": "Cc1c(O)cc2c(c1C)OC(C)(CCC(=O)O)CC2", "note": "(racemic) [LLU-α, 6-hydroxy-2,7,8-trimethylchroman-2-propanoic acid]", "values": [
      {"measurement": "Na+/K+-ATPase inhibition", "setting": "Na+/K+-ATPase", "value": "no inhibition"},
      {"measurement": "Physical Properties: stability in CDCl3", "setting": "[1]; CDCl3", "value": "Unstable in"},
      {"measurement": "Physical Properties: stability in dilute base", "setting": "[1]; dilute base", "value": "instability; also recorded: Unstable in"},
      {"measurement": "natriuretic activity", "setting": "conscious rats; 8 μg/kg, further purified on acetic acid/acetonitrile RP-HPLC (seventh step)", "value": "active"},
      {"measurement": "kaliuresis (potassium excretion)", "setting": "conscious rats; after infusion, conscious rat", "value": "no detectable kaliuresis"},
      {"measurement": "change in mean arterial pressure", "setting": "conscious rats; infusion, conscious rat", "value": "Neither LLU-α nor -γ caused a significant Change; also recorded: does not cause a significant change"},
      {"measurement": "effect on blood pressure", "setting": "conscious rats; infusion, conscious rat", "value": "no effect on blood pressure"},
      {"measurement": "natriuresis when infused into the rat", "setting": "conscious rats; infusion, conscious rat", "value": "sustained natriuresis"},
      {"measurement": "natriuretic activity at lower or higher doses", "setting": "conscious rats; partially purified (sixth step), doses below or above 4-8 μg/kg", "value": "no activity"},
      {"measurement": "dose range with natriuretic activity", "setting": "conscious rats; partially purified from silica gel-HPLC (sixth purification step)", "value": "4 to 8", "unit": "µg/kg"},
      {"measurement": "natriuretic dose-response curve", "setting": "conscious rats; shape of curve (Table III)", "value": "narrow and biphasic"},
      {"measurement": "Natriuretic Response (R)", "setting": "conscious rats; silica gel HPLC fraction 17, dose 0.2 μg, infused in conscious rat", "value": "−0.14"},
      {"measurement": "Natriuretic Response (R)", "setting": "conscious rats; silica gel HPLC fraction 17, dose 1 μg", "value": 0.27},
      {"measurement": "Natriuretic Response (R)", "setting": "conscious rats; silica gel HPLC fraction 17, dose 2 μg", "value": "1.14 and 0.75"},
      {"measurement": "Natriuretic Response (R)", "setting": "conscious rats; silica gel HPLC fraction 17, dose 10 μg", "value": 0.26},
      {"measurement": "Natriuretic Response (R)", "setting": "conscious rats; silica gel HPLC fraction 18, dose 22.4 μg", "value": 0.02},
      {"measurement": "Natriuretic Response (R)", "setting": "conscious rats; silica gel HPLC fraction 18, dose 56.4 μg", "value": 0.23},
      {"measurement": "Natriuretic Response (R)", "setting": "conscious rats; silica gel HPLC fraction 19, dose 0.2 μg", "value": 0.24},
      {"measurement": "Natriuretic Response (R)", "setting": "conscious rats; silica gel HPLC fraction 19, dose 1 μg", "value": 0.93},
      {"measurement": "Natriuretic Response (R)", "setting": "conscious rats; silica gel HPLC fraction 19, dose 10 μg", "value": 0.09},
      {"measurement": "sodium excretion in the urine in mammals", "setting": "conscious rats; without a corresponding increase in potassium excretion", "value": "capable of increasing sodium excretion"}
    ]},
    {"smiles": "Cc1c(O)cc2c(c1C)O[C@](C)(CCC[C@H](C)CCC[C@H](C)CCCC(C)C)CC2", "note": "[γ-tocopherol]", "values": [
      {"measurement": "mean volume of tumors", "setting": "[2]", "value": "less than the mean volume of tumors in the control mice"}
    ]}
  ]
}
